Patent publication US6313111A, “Substituted 6H-1,3,4-thiadiazine-2-amines, the use thereof as anaesthetising, cardiovascular and hypometabolic agents, and pharmaceutical composition containing them” (priority 1998, dated 2001)
Where “and” joins values, the source holds several entries; their conditions need not be identical. Equal entries are not always repeated. Structures can show the parent of a compound that is named as a salt.

Assay: rectal (body) temperature of mice measured with medicinal electrothermometer TREM-1
Type: in vivo, mice of the BALB line
Description: In all cases tests were carried out on mice of the BALB line of 3-4 month age. […] In the case of water-soluble compounds, aqueous solutions of the test compounds were injected intraperitoneally (i.p.), while water-insoluble compounds were introduced orally (p.o.).
Rectal temperature changes (absolute magnitues in ° C.) were measured using a medicinal electrothermometer TREM-1 (Table 1). The rate of oxygen consumption was monitored by measuring concentration of oxygen in a closed testing unit with optic-acoustic gas analyser MN 5130. The data on oxygen consumption are given in percents relative to the starting content of oxygen taken as 100%. (Table 2).
Rectal temperature of mice was followed in dynamics after 5, 15, 30, 60, 120, 180, 240, 300, and 360 minutes (Table 3). […] The same decrease in temperature at 190 mg/kg dosage was reached after 15 minutes; in 1.5 hours it reached 22-25° C. and maintained this level over the next 5 hours, that is 13-17° C. below the initial value. After one day, body temperature was restored to the value of 94-96% of initial.

For `c1ccc(C2=NN=C(N3CCOCC3)SC2)cc1` [Compound 1, 2-Morpholino-5-phenyl-6H-1,3,4-thiadiazine, hydrobromide], the “body temperature (T)” value (10.0 mg/kg i.p., 0 min) was 37.5 ± 0.2 °C, the “body temperature (T)” value (10.0 mg/kg i.p., 10 min) was 37.8 ± 0.1 °C and the “body temperature (T)” value (10.0 mg/kg i.p., 20 min) was 37.4 ± 0.2 °C. The “body temperature (T)” value (10.0 mg/kg i.p., 30 min) was 37.3 °C, the “body temperature (T)” value (10.0 mg/kg i.p., 40 min) was 37.5 ± 0.1 °C and the “body temperature (T)” value (10.0 mg/kg i.p., 60 min) was 37.5 ± 0.1 °C. The “body temperature (T)” value (10.0 mg/kg i.p., 90 min) was 37.4 ± 0.2 °C, the “body temperature (T)” value (10.0 mg/kg i.p., 120 min) was 36.9 ± 0.1 °C and the “body temperature (T)” value (10.0 mg/kg i.p., 180 min) was 36.9 ± 0.2 °C. For the same compound, the “body temperature (T)” value (10.0 mg/kg i.p., 210 min) was 36.4 °C, the “body temperature (T)” value (10.0 mg/kg i.p., 240 min) was 36.7 ± 0.2 °C and the “body temperature (T)” value (10.0 mg/kg i.p., 270 min) was 36.7 ± 0.2 °C. The “body temperature (T)” value (10.0 mg/kg i.p., 300 min) was 36.9 ± 0.1 °C, the “body temperature (T)” value (10.0 mg/kg i.p., 330 min) was 36.8 ± 0.2 °C and the “body temperature (T)” value (10.0 mg/kg i.p., 390 min) was 36.7 ± 0.2 °C. The “body temperature (T)” value (35.0 mg/kg i.p., 0 min) was 37.7 ± 0.2 °C, the “body temperature (T)” value (35.0 mg/kg i.p., 10 min) was 37.2 ± 0.2 °C and the “body temperature (T)” value (35.0 mg/kg i.p., 20 min) was 36.6 ± 0.4 °C. The “body temperature (T)” value (35.0 mg/kg i.p., 30 min) was 35.9 °C, the “body temperature (T)” value (35.0 mg/kg i.p., 40 min) was 36.6 ± 0.1 °C and the “body temperature (T)” value (35.0 mg/kg i.p., 60 min) was 37.0 ± 0.3 °C. For the same compound, the “body temperature (T)” value (35.0 mg/kg i.p., 90 min) was 37.3 ± 0.1 °C, the “body temperature (T)” value (35.0 mg/kg i.p., 120 min) was 37.1 ± 0.3 °C and the “body temperature (T)” value (35.0 mg/kg i.p., 180 min) was 36.9 ± 0.2 °C. The “body temperature (T)” value (35.0 mg/kg i.p., 210 min) was 36.6 ± 0.1 °C, the “body temperature (T)” value (35.0 mg/kg i.p., 240 min) was 36.9 ± 0.4 °C and the “body temperature (T)” value (35.0 mg/kg i.p., 270 min) was 36.8 ± 0.1 °C. The “body temperature (T)” value (35.0 mg/kg i.p., 300 min) was 36.9 ± 0.1 °C, the “body temperature (T)” value (35.0 mg/kg i.p., 330 min) was 37.2 ± 0.2 °C and the “body temperature (T)” value (35.0 mg/kg i.p., 390 min) was 37.1 ± 0.1 °C. The “body temperature (T)” value (70.0 mg/kg i.p., 0 min) was 37.5 ± 0.2 °C, the “body temperature (T)” value (70.0 mg/kg i.p., 10 min) was 36.2 ± 0.3 °C and the “body temperature (T)” value (70.0 mg/kg i.p., 20 min) was 35.4 ± 0.5 °C. The “body temperature (T)” value (70.0 mg/kg i.p., 30 min) was 34.5 °C, the “body temperature (T)” value (70.0 mg/kg i.p., 40 min) was 35.0 ± 0.9 °C and the “body temperature (T)” value (70.0 mg/kg i.p., 60 min) was 35.6 ± 0.6 °C. The “body temperature (T)” value (70.0 mg/kg i.p., 90 min) was 36.1 ± 0.2 °C, the “body temperature (T)” value (70.0 mg/kg i.p., 120 min) was 37.0 ± 0.2 °C and the “body temperature (T)” value (70.0 mg/kg i.p., 180 min) was 36.7 ± 0.6 °C. The “body temperature (T)” value (70.0 mg/kg i.p., 210 min) was 36.9 °C, the “body temperature (T)” value (70.0 mg/kg i.p., 240 min) was 37.0 ± 0.1 °C and the “body temperature (T)” value (70.0 mg/kg i.p., 270 min) was 36.6 ± 0.2 °C. For the same compound, the “body temperature (T)” value (70.0 mg/kg i.p., 300 min) was 37.0 ± 0.1 °C, the “body temperature (T)” value (70.0 mg/kg i.p., 330 min) was 37.2 ± 0.1 °C and the “body temperature (T)” value (70.0 mg/kg i.p., 390 min) was 37.1 ± 0.1 °C. For the same compound, the “time of maximum drop of body temperature” value (140 mg/kg i.p.) was 40 to 60 min, the “body temperature (T)” value (140.0 mg/kg i.p., 0 min) was 37.9 ± 0.1 °C and the “body temperature (T)” value (140.0 mg/kg i.p., 10 min) was 34.5 ± 0.2 °C. The “body temperature (T)” value (140.0 mg/kg i.p., 20 min) was 32.6 ± 0.4 °C, the “body temperature (T)” value (140.0 mg/kg i.p., 30 min) was 30.8 °C and the “body temperature (T)” value (140.0 mg/kg i.p., 40 min) was 30.2 ± 0.1 °C. The “body temperature (T)” value (140.0 mg/kg i.p., 60 min) was 30.0 ± 0.1 °C, the “body temperature (T)” value (140.0 mg/kg i.p., 90 min) was 31.5 ± 0.9 °C and the “body temperature (T)” value (140.0 mg/kg i.p., 120 min) was 33.6 ± 0.7 °C. For the same compound, the “body temperature (T)” value (140.0 mg/kg i.p., 180 min) was 35.2 ± 0.5 °C, the “body temperature (T)” value (140.0 mg/kg i.p., 210 min) was 36.1 °C and the “body temperature (T)” value (140.0 mg/kg i.p., 240 min) was 36.5 ± 0.2 °C. For the same compound, the “body temperature (T)” value (140.0 mg/kg i.p., 270 min) was 36.6 ± 0.2 °C, the “body temperature (T)” value (140.0 mg/kg i.p., 300 min) was 36.9 ± 0.1 °C and the “body temperature (T)” value (140.0 mg/kg i.p., 330 min) was 37.6 ± 0.2 °C. The “body temperature (T)” value (140.0 mg/kg i.p., 390 min) was 37.2 ± 0.2 °C, the “maximum drop of body temperature” value (140 mg/kg i.p., after 40-60 minutes) was 7-8 °C and the “body temperature (T)” value (190 mg/kg (1/2 LD16) i.p., 5 min) was 34.9 ± 0.0 °C. The “body temperature (T)” value (190 mg/kg (1/2 LD16) i.p., 15 min) was 30.8 ± 0.2 °C, the “time to reach the same decrease in temperature (7-8° C.)” value (190 mg/kg i.p.) was 15 min and the “body temperature (T)” value (190.0 mg/kg i.p., 0 min) was 39.2 ± 0.1 °C. The “body temperature (T)” value (190.0 mg/kg i.p., 10 min) was 34.9 ± 0.0 °C, the “body temperature (T)” value (190.0 mg/kg i.p., 20 min) was 30.8 ± 0.2 °C and the “body temperature (T)” value (190.0 mg/kg i.p., 30 min, hydrobromide) was 26.9 ± 0.4 °C and 26.9 °C.
